Laboratory results: paper PMC4258421 (Archives of biochemistry and biophysics, 2014)
Like-named read-outs stand apart in the source and are kept apart here.

Legend:
[1] = test system: UGTs in human liver microsomes pooled from 150 donors (HLM150); assay type: in vitro ADME; settings: for Km: read-out: Km for the microsomal reaction, glucuronidation at the C7 hydroxyl group, HLM150
[2] = test system: plasma proteins; settings: cited from earlier work
[3] = test system: recombinant UGT1A1; settings: read-out: Km for the UGT1A1 reaction, glucuronidation at the C7 hydroxyl group; cited from earlier work
[4] = formation of 7-HOWAR-4-GLUC, DynaFit preferred model, 95 % CI in parentheses
[5] = formation of 7-HOWAR-7-GLUC, DynaFit preferred model, 95 % CI in parentheses

SMILES | Ks [1, 4] | Vmax1 [1, 4] | Ks [1, 5] | Vmax1 [1, 5] | Km [1] | not bound to plasma proteins [2] | Km [3] | Vmax2 [1, 4]
CC(=O)C[C@@H](c1ccccc1)c1c(O)c2ccc(O)cc2oc1=O [S-7-OHWAR, S-7-hydroxywarfarin] | 110 (83.0–149) μM | 19.7 (17.6–22.4) nmol/min/mg protein | 927 (559–1960) μM | 1470 (1020–2700) nmol/min/mg protein | 927 µM | 4.27% | 230 µM | 
CC(=O)C[C@H](c1ccccc1)c1c(O)c2ccc(O)cc2oc1=O [R-7-HOWAR, R-7-hydroxywarfarin] |  | 58.0 (49.5–66.1) nmol/min/mg protein | 121 (101–144) μM | 1090 (1050–1140) nmol/min/mg protein | 121 µM | 4.49% | 130 µM | 19.0 (16.3–21.4) nmol/min/mg protein
